From article PMC4577729, “7-(Pyrazol-4-yl)-3H-imidazo[4,5-b]pyridine-based derivatives for kinase inhibition: Co-crystallisation studies with Aurora-A reveal distinct differences in the orientation of the pyrazole N1-substituent” (Bioorganic & Medicinal Chemistry Letters, 2015)
Where “and” joins values, the source holds several entries; their conditions need not be identical. Equal entries are not always repeated.

Columns and labels:
[1] = Human liver microsomal stability; assay type: in vitro ADME; conditions: percentage of compound metabolised after a 30 min incubation, human liver microsomes
Method: (§1) [18] MLM and HLM microsomal stabilities were determined as described in Ref. [12].

[2] = Mouse liver microsomal stability; assay type: in vitro ADME; conditions: percentage of compound metabolised after a 30 min incubation, mouse liver microsomes
Method: as §1

Aurora A = target: T1, Aurora A (Homo sapiens, UniProt O14965); assay: Aurora-A microfluidic kinase assay; assay type: biochemical; conditions: for IC50: biochemical, mean of two determinations or mean ±SD for n > 2; for fold more potent on Aurora-A relative to Aurora-B: ratio of biochemical IC50s
T1 sequence (O14965 1-403): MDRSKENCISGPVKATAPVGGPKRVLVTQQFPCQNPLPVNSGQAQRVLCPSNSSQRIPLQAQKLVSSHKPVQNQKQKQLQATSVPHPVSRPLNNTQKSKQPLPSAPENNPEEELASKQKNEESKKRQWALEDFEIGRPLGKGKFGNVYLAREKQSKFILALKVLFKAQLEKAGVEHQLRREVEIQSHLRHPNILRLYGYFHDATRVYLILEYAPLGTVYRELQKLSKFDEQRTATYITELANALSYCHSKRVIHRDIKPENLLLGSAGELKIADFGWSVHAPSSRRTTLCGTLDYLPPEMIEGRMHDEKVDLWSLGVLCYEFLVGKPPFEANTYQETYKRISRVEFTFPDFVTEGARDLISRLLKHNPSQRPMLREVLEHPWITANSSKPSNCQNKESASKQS
Source text: (§2) As part of our medicinal chemistry programme to discover selective inhibitors of Aurora-A,[12] we introduced the 1-benzyl-1H-pyrazol-4-yl moiety at C7 of the imidazo[4,5-b]pyridine scaffold to provide 7a (Table 1). We previously reported 1,3-dimethyl-1H-pyrazol-4-yl as a preferred substituent at the C2 position of the imidazo[4,5-b]pyridine scaffold[11] and this moiety was therefore incorporated into the design of 7a and analogues presented in this study. […] This in vitro profile prompted us to investigate this C7-pyrazole substituted imidazo[4,5-b]pyridine subseries in more detail. Firstly, we attempted to increase biochemical potency against Aurora-A, and also to improve microsomal stability.
(§3) [17] Aurora-A and Aurora-B IC50 values were determined by using a microfluidic assay which monitors the separation of a phosphorylated product from its substrate, as described in Ref. [12].

Aurora B = Aurora B (Homo sapiens, UniProt Q96GD4); assay: Aurora-B microfluidic kinase assay; conditions: biochemical; mean of two determinations or mean ±SD for n > 2
Sequence of Aurora B (Q96GD4 whole entry): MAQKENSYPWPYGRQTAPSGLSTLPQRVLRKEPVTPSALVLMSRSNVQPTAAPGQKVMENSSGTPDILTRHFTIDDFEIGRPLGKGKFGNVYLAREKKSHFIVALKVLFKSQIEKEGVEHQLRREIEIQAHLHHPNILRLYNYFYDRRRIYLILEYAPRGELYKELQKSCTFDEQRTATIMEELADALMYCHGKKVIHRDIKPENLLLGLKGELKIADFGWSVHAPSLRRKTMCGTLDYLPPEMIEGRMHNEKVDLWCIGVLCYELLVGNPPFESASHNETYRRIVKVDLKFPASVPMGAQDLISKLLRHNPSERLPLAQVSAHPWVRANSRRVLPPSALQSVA
Source text: as §2, §3

[3] = Protein binding in microsomal incubations (MLM); assay type: in vitro ADME, mouse
Method: (§4) For a better understanding of the microsomal stability data, the protein binding for 7a, 7d and 7e in microsomal incubations was measured. The percentage of 7a unbound in MLM and HLM was determined as 6.71 and 4.89, respectively. Compounds 7d and 7e were more highly bound: for 7d the percentage unbound was 0.50 in both MLM and HLM and for 7e was 0.16 and 0.10, respectively. […] The potent cell-based activity prompted us to investigate kinome selectivity profiles for this class of compound by screening 7a and 7d in a 102-kinase panel at a concentration of 1 μM.[20] […] The Gini coefficient for compound 3 was reported as 0.719,[12] and the corresponding value for compound 1 is 0.560. To understand the potential for further improvement, we obtained the crystal structure of 7a bound to Aurora-A[22] (Fig. 3, Table S3, Supplementary data). […] Similar to crystal structures of previous compounds 1, 15 and 16 (Figs. 1 and 2; compounds 51 and 40c in Ref. [10], and compound 21a in Ref. [11], respectively) the N-benzyl substituent on the C7-pyrazole is oriented towards the P-loop, making Van der Waals contacts with Val147 and Gly142 (Fig. 3).

[4] = Protein binding in microsomal incubations (HLM); assay type: in vitro ADME, human
Method: as §4

Row | HLM % met/30 min [1] | MLM % met/30 min [2] | IC50 (Aurora A) | fold more potent on Aurora-A relative to Aurora-B (Aurora A) | IC50 (Aurora B) | percentage unbound in MLM [3] | percentage unbound in HLM [4] | SMILES
1 | 72% and 72/72% | 72/72% | 36 nM | 8 fold | 296 nM |  |  | Cc1nn(C)cc1-c1nc2c(-c3cnn(Cc4cccc(C(=O)N(C)C)c4)c3)c(Cl)cnc2[nH]1 [Compound 14a]
2 | 87% | 97% | 46 nM | 5 fold | 235 nM |  |  | Cc1nn(C)cc1-c1nc2c(-c3cnn(Cc4cccc(C(=O)N5CCN(C)CC5)c4)c3)c(Cl)cnc2[nH]1 [Compound 14b]
3 | 20% | 31% | > 10000 nM |  | > 10000 nM | 0.16% | 0.10% | Cc1nn(C)cc1-c1nc2c(-c3cnn(-c4ccc(F)cc4)c3)c(Cl)cnc2[nH]1 [Compound 7e]
4 | 82% | 98% | 126 nM |  | 354 nM |  |  | Cc1nn(C)cc1-c1nc2c(-c3cnn(Cc4ccccc4C(=O)N4CCN(C)CC4)c3)c(Cl)cnc2[nH]1 [Compound 14c]
